How the values were obtained:
[1] = test system: AML tumor; experiment: AML tumor growth (FIG. 7, FIG. 8); type: in vivo, mouse
[2] = test system: p53 wild type AML cell lines; experiment: Apoptosis in AML cell lines (FIG. 10); type: cell-based
[3] = test system: A375sq2 (BRAF) tumor; experiment: A375sq2 xenograft study; type: in vivo, female athymic nude mice
Protocol: (§1) All animal experimental procedures were conducted in accordance with Association for Assessment and Accreditation of Laboratory Animal Care standards. All studies utilized 4- to 6-week-old female athymic nude mice (Harlan Laboratories, Hsd: Athymic Nude-Foxn1nu). The mice were housed five per filter-capped cage in sterile housing in an environmentally controlled room (temperature 23±2° C., relative humidity 50±20%) on a 12-hour light/dark cycle. The mice were fed commercial rodent chow (Harlan Laboratories, #2920X) and received filter-purified tap water ad libitum. The mice were individually identified by microchips (Bio Medic Data Systems) that were implanted subcutaneously at least 2 days before the study.
(§2) SJSA-1 cells (5×10^6 cells with Matrigel at a ratio of 2:1), NCI-H460 cells (5×10^6 cells with Matrigel at a ratio of 2:1), A375sq2 (5×10^6 cells with Matrigel at a ratio of 2:1), or HCT116 ([…]) were injected subcutaneously in the flank of female athymic nude mice (n=10/group). Treatment began when tumors were established and approximately 200 mm3. […] Tumor dimensions were assessed twice weekly with a Pro-Max electronic digital caliper (Sylvac) and tumor volume was calculated using the formula: length×width×height and expressed as mm3. Data are expressed as mean±SEM. Body weight was recorded twice weekly to assess tolerability (data not shown). […]

[4] = test system: p21 mRNA; experiment: p21 mRNA in tumors harvested at the end of xenograft studies (qRT-PCR); type: in vivo, female athymic nude mice; settings: FIG. 6
Protocol: Tumor cells (SJSA-1: 5×10^6 cells, HCT 116: 2×10^6 cells) were injected subcutaneously into the flank of female athymic nude mice in a 2:1 ratio of cells to Matrigel (BD Bioscience). […] Tumors were harvested after 1, 2, 4, 8, and 24 hours after dose (SJSA-1) or 6 hours after dose (HCT116) and snap-frozen in liquid nitrogen. Total RNA was purified using Qiagen RNeasy 96 kit (Qiagen). The levels of p21 and the housekeeping gene GAPDH were assayed from total RNA from each sample in technical duplicates by qRTPCR. The qRT-PCR reactions were assayed on the Applied Biosystems Prism 7900HT instrument and the data were analyzed with Applied Biosystems SDS2.2 software. The SDS2.2 software calculated the p21 and GAPDH copy number in each of the tumor samples. The copy number of p21 was normalized to the copy number of the GAPDH, and the fold increase of normalized p21 levels were calculated relative to vehicle control for each sample. For MIC-1, plasma was collected at the time of sacrifice and MIC-1 was detected using R&D Quantikine Human MIC-1 Immunoassay (cat no. DGD150) following the manufacturer's instructions. The ELISA assay was read using a Spectramax M5 microplate reader using Softmax pro v4 (Molecular Devices). […]

[5] = test system: SJSA-1 (MDM2 amplified) tumor; experiment: SJSA-1 xenograft study; type: in vivo, female athymic nude mice
Protocol: as §1
Treatment began when tumors were established and approximately 200 mm3. […] Tumor dimensions were assessed twice weekly with a Pro-Max electronic digital caliper (Sylvac) and tumor volume was calculated using the formula: length×width×height and expressed as mm3. Data are expressed as mean±SEM. […] Analysis of p21 mRNA at the end of the xenograft studies was performed as described for the p21 pharmacodynamic assay.

[6] = test system: p53 wild-type tumor cell lines; experiment: Cell viability assay (72 hours), panel of tumor cell lines; type: cell-based
Description: SJSA-1, HCT116, ACHN, NCI-H460, MOLM-13, RKO, MCF7, 22RV1, HT-29, PC-3, NCI-H82, NCI-SNU1, and MG-63 cells were purchased from the ATCC, and have since been authenticated by short tandem repeat analysis (PowerPlex 18D Kit from Promega). NCI-H2452, SW982, C32, SK-HEP-1, A375, RT4, RPMI-2650, MDA-MB-134-VI, NCI-H2347, and A427 cells were purchased from ATCC and used within 6 months. IGR-1 and CML-T1 cells were purchased from German Collection of Microorganisms and Cell Cultures (DSMZ) and used within 6 months. A375sq2 cells were generated by in vivo passaging A375 cells in mice. HCT116 p53^−/− cells were obtained from Bert Vogelstein. […]
CellTiter-Glo Luminescent Cell Viability (Promega) or ATPlite 1 step Luminescent (PerkinElmer) assay kits were used to determine the numbers of viable cells. Luminescence was measured with an EnVision Multilabel Reader (PerkinElmer) for each cell line at time zero (V0) before the addition of compounds, as well as after 72 hours of compound treatment. Growth inhibition (GI) was calculated on a 200-point scale according to the following equations, where V72 was luminescence of DMSO control at 72 hours and T72 was luminescence of the compound-treated sample: if T72>V0, then GI=100×(1−((T72−V0)/(V72−V0))); if T72<V0, then GI=100×(1−((T72−V0)/V0)). […]

[7] = test system: cell cycle; experiment: Cell cycle (FIG. 9); type: cell-based
[8] = test system: tumor cell lines harboring wild-type p53; experiment: Xenograft models of different genetic backgrounds and tumor types (all models); type: in vivo, female athymic nude mice; settings: daily oral administration, FIGS. 3-5
Protocol: as §1, §2

[9] = test system: HCT116 (KRAS) tumor; experiment: HCT116 xenograft study; type: in vivo, female athymic nude mice
Protocol: as §1
SJSA-1 cells (5×10^6 cells with Matrigel at a ratio of 2:1), NCI-H460 cells (5×10^6 cells with Matrigel at a ratio of 2:1), A375sq2 (5×10^6 cells with Matrigel at a ratio of 2:1), or HCT116 ([…]) were injected subcutaneously in the flank of female athymic nude mice (n=10/group). Treatment began when tumors were established and approximately 200 mm3. The compound of Formula (I) was administered once per day by oral gavage. Tumor dimensions were assessed twice weekly with a Pro-Max electronic digital caliper (Sylvac) and tumor volume was calculated using the formula: length×width×height and expressed as mm3. Data are expressed as mean±SEM. Body weight was recorded twice weekly to assess tolerability (data not shown). Analysis of p21 mRNA at the end of the xenograft studies was performed as described for the p21 pharmacodynamic assay.

IC50 ([6]; 23 p53 wild-type cell lines, 72-hour period, read-out: IC50, inhibition of cell growth): 0.1 to 1 µM
Structure (SMILES): CC(C)[C@@H](CS(=O)(=O)C(C)C)N1C(=O)[C@@](C)(CC(=O)O)C[C@H](c2cccc(Cl)c2)[C@H]1c1ccc(Cl)cc1 [compound of Formula (I), 2-((3R,5R,6S)-5-(3-chlorophenyl)-6-(4-chlorophenyl)-1-((S)-1-(isopropylsulfonyl)-3-methylbutan-2-yl)-3-methyl-2-oxopiperidin-3-yl) acetic acid]
AML tumor growth [1]: inhibits AML tumor growth in a mouse model in a dose dependent manner
apoptosis [2]: induces apoptosis
ED50 ([3]; Mus musculus, A375-SQ2, once per day by oral gavage, read-out: ED50, in vivo tumor growth): 18 mg/kg
TGI ([3]; mouse, in vivo): 97%
induction of p21 mRNA compared with vehicle-treated tumors [4]: dose- and time-dependent induction of p21 mRNA
tumor regrowth after treatment stopped ([5]; 75 mg/kg group, treatment stopped after day 25, observed additional 50 days): no detectable SJSA-1 tumor regrowth
ED50 ([5]; Mus musculus, SJSA-1, po, once per day by oral gavage, read-out: ED50, in vivo tumor growth): 9 mg/kg
tumors completely regressed and undetectable ([5]; highest dose group of 75 mg/kg, after 10 days of treatment): 10 of 10
proliferation of p53 WT tumor cells ([6]; FIG. 2): inhibits the proliferation of p53 WT tumor cells
effect on cell cycle [7]: inhibits the cell cycle
tumor growth inhibition (TGI) across all models [8]: significant tumor growth inhibition
ED50 ([9]; Mus musculus, HCT-116, po, once per day by oral gavage, read-out: ED50, in vivo tumor growth): 31.6 mg/kg
TGI compared with control ([9]; highest dose): 86%
ED50, in vivo tumor growth ([9]; once per day by oral gavage): 31 mg/kg

From US12115153B2, “Methods of treating cancer” (Kartos Therapeutics, Inc., priority 2018, dated 2024)
